Source: patent US11382956B2, “Amylin analogues” (Zealand Pharma A/S, priority 2016, dated 2022)
Numbered stars: 1 amine (or outer) side, 2 acyl side, 3 side chain; on linkers, the order of the positions; unused ones are H or OH. Bridge positions count the residues as written; N and C are the ends. Square brackets hold non-standard residues; d marks the D form. Peptide text beside a SMILES is read from it. * marks the point of attachment. C20 diacid = O=C(O)CCCCCCCCCCCCCCCCCCC(=O)*; γGlu = O=C(O)[C@H](CCC(=O)[*:2])N[*:1]; Hyp = O=C(O)[C@@H]1C[C@@H](O)CN1; NMeI = CC[C@H](C)[C@H](NC)C(=O)O; Aad = N[C@@H](CCCC(=O)O)C(=O)O; Sar = CNCC(=O)O

Columns and labels:
[1] = biological target: T1, recombinant human amylin 3 receptor (hAMYR3) (Homo sapiens, UniProt O60896+P30988); assay: hAMYR3 cAMP assay (AlphaScreen) in 1321N1 cells; type: cell-based; conditions: cAMP formation, 45 min stimulation
T1 construct: host or cells: human astrocytoma cell line 1321N1
T1 sequence (P30988 25-474): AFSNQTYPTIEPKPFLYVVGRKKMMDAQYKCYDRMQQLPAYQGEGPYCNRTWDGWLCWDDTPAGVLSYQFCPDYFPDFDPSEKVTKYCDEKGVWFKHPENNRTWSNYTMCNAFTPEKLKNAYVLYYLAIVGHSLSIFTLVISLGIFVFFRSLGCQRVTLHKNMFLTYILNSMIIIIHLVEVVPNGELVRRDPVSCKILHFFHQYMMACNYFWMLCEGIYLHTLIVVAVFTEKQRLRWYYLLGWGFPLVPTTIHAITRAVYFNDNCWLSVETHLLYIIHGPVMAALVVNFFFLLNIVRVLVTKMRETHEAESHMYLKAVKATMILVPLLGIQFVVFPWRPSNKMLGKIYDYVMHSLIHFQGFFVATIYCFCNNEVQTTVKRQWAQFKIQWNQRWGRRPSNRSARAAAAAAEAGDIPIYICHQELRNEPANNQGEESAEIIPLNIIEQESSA
T1 sequence (O60896 24-148 partner): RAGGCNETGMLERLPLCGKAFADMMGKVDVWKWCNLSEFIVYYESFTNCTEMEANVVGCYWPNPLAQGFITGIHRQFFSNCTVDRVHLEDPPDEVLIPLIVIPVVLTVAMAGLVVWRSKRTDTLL
How it was run: (§1)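 1321N1 astrocytoma cells expressing recombinant human calcitonin receptor alone or with RAMP3 (AMY3) stimulated 45 min at room temperature with peptide in IBMX-containing buffer. cAMP quantified by AlphaScreen after 1 h bead incubation; EC50 fitted from at least 7 concentrations.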

[2] = Assessment of physical stability: fibril formation by Thioflavin T fluorescence; type: physicochemical; design: key: FND = fibrillation not detected; FD = fibrillation detected; conditions: 1 mg/mL peptide
Procedure: Solutions containing (i) 1 mg/mL of test peptide, 40 μM ThT and 50 mM phosphate (Ph) buffer (pH 7.0), (ii) 1 mg/mL of test peptide, 40 μM ThT and 50 mM histidine (His) buffer (pH 7.0), and (iii) 1 mg/mL of test peptide, 40 μM ThT and 50 mM acetate (Ac) buffer (pH 4.0), were loaded in a 96-well black fluorescence plate (clear bottom) in triplicate. Data were collected at fixed intervals of 10 min, each preceded by 300 s of automixing (agitation), over a period of 96 hours at 40° C. Physical stability is determined by measuring the fluorescence intensity over time. A significant increase in intensity is rated as fibrillation detected (FD).

[3] = biological target: T2, recombinant human calcitonin receptor (hCT-R) (Homo sapiens, UniProt P30988); assay: hCT-R cAMP assay (AlphaScreen) in 1321N1 cells; type: cell-based; conditions: cAMP formation, 45 min stimulation
T2 construct: host or cells: human astrocytoma cell line 1321N1
T2 sequence (P30988 25-474): T1 sequence (P30988 25-474)
How it was run: as §1

[4] = Assessment of chemical stability in 40 mM buffers at 40° C. (RP-HPLC); type: physicochemical; conditions: 1 mg/mL; for % degradation after 14 days at 40° C. pH4 acetate: acetate buffer pH 4, 14 days; for % degradation after 14 days at 40° C. pH6 phosphate: phosphate buffer pH 6, 14 days
Procedure: Samples of each test peptide were dissolved in acetate buffer pH 4 and phosphate buffer pH 6 and 7 (all buffer 40 mM). The final peptide concentration was 1 mg/mL. Samples were placed in glass vials and incubated at 40° C. The samples were analyzed by RP-HPLC on a C8 column with gradient elution using a trifluoroacetic acid/acetonitrile/water eluent system. The area-percentage (area-%) of the main peak was determined by UV spectroscopy at 220 nm at each sampling time point.
The % degradation was calculated by subtracting the […].
The results of the chemical stability assessment after 3 days of incubation time are summarized as % degradation in Table 1 (below).
The results of the chemical stability assessment after 14 days of incubation time are summarized as % degradation in Table 2 (below).

SMILES | EC50 [1] | Fibrillation (in buffer) pH4 acetate ([2]; 50 mM acetate buffer pH 4.0, 96 hours at 40° C.) | Fibrillation (in buffer) pH7 histidine ([2]; 50 mM histidine buffer pH 7.0, 96 hours at 40° C.) | Fibrillation (in buffer) pH7 phosphate ([2]; 50 mM phosphate buffer pH 7.0, 96 hours at 40° C.) | EC50 [3] | % degradation after 14 days at 40° C. pH4 acetate [4] | % degradation after 14 days at 40° C. pH6 phosphate [4] | % degradation after 14 days at 40° C. pH7 phosphate ([4]; phosphate buffer pH 7, 14 days)
CC[C@H](C)[C@@H](C(=O)N[C@@H](CC(C)C)C(=O)N[C@@H](CO)C(=O)N[C@@H](CO)C(=O)N[C@H](C(=O)N[C@@H](CCC(=O)O)C(=O)N[C@H](C(=O)NCC(=O)N[C@@H](CO)C(=O)N[C@@H](CC(N)=O)C(=O)N[C@H](C(=O)N1C[C@H](O)C[C@H]1C(N)=O)[C@@H](C)O)C(C)C)[C@@H](C)O)N(C)C(=O)[C@H](C)NC(=O)CN(C)C(=O)[C@H](Cc1ccccc1)NC(=O)[C@H](CO)NC(=O)[C@H](CO)NC(=O)[C@H](CCCNC(=N)N)NC(=O)[C@H](CCC(N)=O)NC(=O)[C@H](CC(C)C)NC(=O)[C@H](Cc1ccccc1)NC(=O)[C@H](CC(N)=O)NC(=O)[C@H](C)NC(=O)[C@H](CC(C)C)NC(=O)[C@H](CCCNC(=N)N)NC(=O)[C@H](CCC(N)=O)NC(=O)[C@@H](NC(=O)[C@H](C)NC(=O)[C@@H]1CCCCNC(=O)C[C@H](NC(=O)[C@H](CCCCN)NC(=O)CC[C@H](NC(=O)CCCCCCCCCCCCCCCCCCC(=O)O)C(=O)O)C(=O)NCC(=O)N[C@@H]([C@@H](C)O)C(=O)N[C@@H](C)C(=O)N[C@@H]([C@@H](C)O)C(=O)N1)[C@@H](C)O [Compound 43, [19CD]-isoGlu-KD()GTATK()ATQRLANFLQRSSF-Gly(Me)-A-Ile(Me)-LSSTEVGSNT-Hyp-NH2] ({C20 diacid-γGlu}-KDGTATKATQRLANFLQRSSF[Sar]A[NMeI]LSSTEVGSNT[Hyp]-NH2; lactam 2-7) | 7 pM | FD | FD | FD | 21 pM |  |  | 
CC[C@H](C)[C@@H](C(=O)N[C@@H](CC(C)C)C(=O)N[C@@H](CO)C(=O)N[C@@H](CO)C(=O)N[C@H](C(=O)N[C@@H](CCC(=O)O)C(=O)N[C@H](C(=O)NCC(=O)N[C@@H](CO)C(=O)N[C@@H](CC(N)=O)C(=O)N[C@H](C(=O)N1C[C@H](O)C[C@H]1C(N)=O)[C@@H](C)O)C(C)C)[C@@H](C)O)N(C)C(=O)[C@H](C)NC(=O)CN(C)C(=O)[C@H](Cc1ccccc1)NC(=O)[C@H](CO)NC(=O)[C@H](CO)NC(=O)[C@H](CCCNC(=N)N)NC(=O)[C@H](CCC(N)=O)NC(=O)[C@H](CC(C)C)NC(=O)[C@H](Cc1ccccc1)NC(=O)[C@H](Cc1c[nH]cn1)NC(=O)[C@H](C)NC(=O)[C@H](CC(C)C)NC(=O)[C@H](CCCNC(=N)N)NC(=O)[C@H](CCC(=O)O)NC(=O)[C@@H](NC(=O)[C@H](C)NC(=O)[C@@H]1CCCCNC(=O)C[C@H](NC(=O)[C@H](CCCNC(=N)N)NC(=O)CC[C@H](NC(=O)CCCCCCCCCCCCCCCCCCC(=O)O)C(=O)O)C(=O)NCC(=O)N[C@@H]([C@@H](C)O)C(=O)N[C@@H](C)C(=O)N[C@@H](CO)C(=O)N1)[C@@H](C)O [Compound 14, [19CD]-isoGlu-RD()GTASK()ATERLAHFLQRSSF-Gly(Me)-A-Ile(Me)-LSSTEVGSNT-Hyp-NH2] ({C20 diacid-γGlu}-RDGTASKATERLAHFLQRSSF[Sar]A[NMeI]LSSTEVGSNT[Hyp]-NH2; lactam 2-7) | 108 pM |  |  |  | 386 pM | 2.2% | <1% | 2.6%
CC[C@H](C)[C@@H](C(=O)N[C@@H](CC(C)C)C(=O)N[C@@H](CO)C(=O)N[C@@H](CO)C(=O)N[C@H](C(=O)N[C@@H](CCC(=O)O)C(=O)N[C@H](C(=O)NCC(=O)N[C@@H](CO)C(=O)N[C@@H](CC(N)=O)C(=O)N[C@H](C(=O)N1C[C@H](O)C[C@H]1C(N)=O)[C@@H](C)O)C(C)C)[C@@H](C)O)N(C)C(=O)[C@H](C)NC(=O)CN(C)C(=O)[C@H](Cc1ccccc1)NC(=O)[C@H](CO)NC(=O)[C@H](CO)NC(=O)[C@H](CCCNC(=N)N)NC(=O)[C@H](CCC(N)=O)NC(=O)[C@H](CC(C)C)NC(=O)[C@H](Cc1ccccc1)NC(=O)[C@H](Cc1c[nH]cn1)NC(=O)[C@H](C)NC(=O)[C@H](CC(C)C)NC(=O)[C@H](CCCNC(=N)N)NC(=O)[C@H](CCC(=O)O)NC(=O)[C@@H](NC(=O)[C@H](C)NC(=O)[C@@H]1CSSC[C@H](NC(=O)[C@H](CCCNC(=N)N)NC(=O)CC[C@H](NC(=O)CCCCCCCCCCCCCCCCCCC(=O)O)C(=O)O)C(=O)NCC(=O)N[C@@H]([C@@H](C)O)C(=O)N[C@@H](C)C(=O)N[C@@H]([C@@H](C)O)C(=O)N1)[C@@H](C)O [Ref. 2, [19CD]-isoGlu-RC()GTATC()ATERLAHFLQRSSF-Sar-A-Ile(Me)-LSSTEVGSNT-Hyp-NH2, reference compound] ({C20 diacid-γGlu}-RCGTATCATERLAHFLQRSSF[Sar]A[NMeI]LSSTEVGSNT[Hyp]-NH2; disulfide 2-7) | 3 pM |  |  |  | 19 pM | <1% | 4.6% | 
CC[C@H](C)[C@@H](C(=O)N[C@@H](CC(C)C)C(=O)N[C@@H](CO)C(=O)N[C@@H](CO)C(=O)N[C@H](C(=O)N[C@@H](CCC(=O)O)C(=O)N[C@H](C(=O)NCC(=O)N[C@@H](CO)C(=O)N[C@@H](CC(N)=O)C(=O)N[C@H](C(=O)N1C[C@H](O)C[C@H]1C(N)=O)[C@@H](C)O)C(C)C)[C@@H](C)O)N(C)C(=O)[C@H](C)NC(=O)CN(C)C(=O)[C@H](Cc1ccccc1)NC(=O)[C@H](C)NC(=O)[C@H](C)NC(=O)[C@H](CCCNC(=N)N)NC(=O)[C@H](CCC(N)=O)NC(=O)[C@H](CC(C)C)NC(=O)[C@H](Cc1ccccc1)NC(=O)[C@H](CCCC(=O)O)NC(=O)[C@H](C)NC(=O)[C@H](CC(C)C)NC(=O)[C@H](CCCNC(=N)N)NC(=O)[C@H](CCC(=O)O)NC(=O)[C@@H](NC(=O)[C@H](C)NC(=O)[C@@H]1CCCCNC(=O)C[C@H](NC(=O)[C@H](CCCNC(=N)N)NC(=O)CC[C@H](NC(=O)CCCCCCCCCCCCCCCCCCC(=O)O)C(=O)O)C(=O)NCC(=O)N[C@@H]([C@@H](C)O)C(=O)N[C@@H](C)C(=O)N[C@@H]([C@@H](C)O)C(=O)N1)[C@@H](C)O [Compound 31, [19CD]-isoGlu-RD()GTATK()ATERLA-Aad-FLQRAAF-Gly(Me)-A-Ile(Me)-LSSTEVGSNT-Hyp-NH2] ({C20 diacid-γGlu}-RDGTATKATERLA[Aad]FLQRAAF[Sar]A[NMeI]LSSTEVGSNT[Hyp]-NH2; lactam 2-7) | 66 pM |  |  |  | 227 pM |  |  | 
CC[C@H](C)[C@@H](C(=O)N[C@@H](CC(C)C)C(=O)N[C@@H](CO)C(=O)N[C@@H](CO)C(=O)N[C@H](C(=O)N[C@@H](CCC(=O)O)C(=O)N[C@H](C(=O)NCC(=O)N[C@@H](CO)C(=O)N[C@@H](CC(N)=O)C(=O)N[C@H](C(=O)N1C[C@H](O)C[C@H]1C(N)=O)[C@@H](C)O)[C@@H](C)O)[C@@H](C)O)N(C)C(=O)[C@H](C)NC(=O)CN(C)C(=O)[C@H](Cc1ccccc1)NC(=O)[C@H](CO)NC(=O)[C@H](CO)NC(=O)[C@H](CCCNC(=N)N)NC(=O)[C@H](CCC(N)=O)NC(=O)[C@H](CC(C)C)NC(=O)[C@H](Cc1ccccc1)NC(=O)[C@H](CC(=O)O)NC(=O)[C@H](C)NC(=O)[C@H](CC(C)C)NC(=O)[C@H](CCCNC(=N)N)NC(=O)[C@H](CCC(N)=O)NC(=O)[C@@H](NC(=O)[C@H](C)NC(=O)[C@@H]1CCCCNC(=O)C[C@H](NC(=O)[C@H](CCCNC(=N)N)NC(=O)CC[C@H](NC(=O)CCCCCCCCCCCCCCCCCCC(=O)O)C(=O)O)C(=O)NCC(=O)N[C@@H]([C@@H](C)O)C(=O)N[C@@H](C)C(=O)N[C@@H]([C@@H](C)O)C(=O)N1)[C@@H](C)O [Compound 42, [19CD]-isoGlu-RD()GTATK()ATQRLADFLQRSSF-Gly(Me)-A-Ile(Me)-LSSTETGSNT-Hyp-NH2] ({C20 diacid-γGlu}-RDGTATKATQRLADFLQRSSF[Sar]A[NMeI]LSSTETGSNT[Hyp]-NH2; lactam 2-7) | 3 pM |  |  |  | 6 pM |  |  | 
